Laboratory results from patent US20250230171A1 (MOMA Therapeutics, Inc., priority 2023, published 2025).
Read-outs that look alike come from different tables or passages of the source.

Tests used:
[1] = target: biotinylated Avi-POLθ[2-894] (Homo sapiens (Human), UniProt O75417); test: POLθ ATPase assay (ADP-Glo); conditions: n=2, read-out: Biochemical ATPase ADPGlo IC50
[2] = test system: DLD1 WT cells; test: 7-day cell viability assay (CellTiter-Glo), DLD1 parental (WT); format: cell-based, human; conditions: n=2
[3] = test system: DLD1 BRCA2 (−/−) cells; test: 7-day cell viability assay (CellTiter-Glo), DLD1 BRCA2 (−/−); format: cell-based, human; conditions: n=2, read-out: Viability IC50 (uM) DLD1 BRCA2 null
How it was run: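 7-day growth assay in DLD1 cells with or without BRCA2; seeding densities chosen to keep log-linear growth. Compound: 10 uM top, 3-fold, 9 points. Endpoint: CTG ATP luminescence at RT.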

[4] = Homo sapiens, DLD-1, 168 h, 7-day CellTiter-Glo
[5] = Homo sapiens, DLD-1, 168 h, 7-day viability

Sequence of biotinylated Avi-POLθ[2-894] (O75417 2-894): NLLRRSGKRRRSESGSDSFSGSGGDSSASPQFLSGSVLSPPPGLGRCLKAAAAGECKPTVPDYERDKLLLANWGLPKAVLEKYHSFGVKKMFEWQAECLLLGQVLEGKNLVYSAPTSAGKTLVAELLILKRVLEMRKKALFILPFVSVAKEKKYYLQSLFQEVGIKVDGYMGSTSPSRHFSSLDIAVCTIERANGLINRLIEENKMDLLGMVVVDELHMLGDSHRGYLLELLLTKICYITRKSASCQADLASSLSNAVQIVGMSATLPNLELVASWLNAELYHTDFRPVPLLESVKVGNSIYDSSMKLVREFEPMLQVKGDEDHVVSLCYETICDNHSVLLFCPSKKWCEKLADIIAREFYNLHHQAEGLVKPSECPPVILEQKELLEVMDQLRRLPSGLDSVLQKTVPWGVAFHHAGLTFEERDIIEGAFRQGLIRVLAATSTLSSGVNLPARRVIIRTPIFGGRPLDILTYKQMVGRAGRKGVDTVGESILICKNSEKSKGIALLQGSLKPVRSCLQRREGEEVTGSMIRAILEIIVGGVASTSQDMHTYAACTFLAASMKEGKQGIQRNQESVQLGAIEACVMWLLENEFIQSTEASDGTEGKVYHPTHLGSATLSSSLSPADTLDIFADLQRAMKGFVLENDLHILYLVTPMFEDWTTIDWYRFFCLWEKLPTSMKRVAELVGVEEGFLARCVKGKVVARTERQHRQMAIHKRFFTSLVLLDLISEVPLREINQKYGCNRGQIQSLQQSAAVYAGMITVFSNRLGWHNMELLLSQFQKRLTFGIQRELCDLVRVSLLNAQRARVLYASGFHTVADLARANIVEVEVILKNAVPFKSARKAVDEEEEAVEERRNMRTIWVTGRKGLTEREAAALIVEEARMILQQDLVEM

| Compound | IC50 ([1]; POLθ ATPase, ADP-Glo) [nM] | IC50 [3, 4] [µM] | IC50 [1] [nM] | IC50 [3, 5] [µM] | IC50 ([3]; 7-day CellTiter-Glo) [µM] | IC50 [2, 4] [µM] | IC50 [2, 5] [µM] | IC50 ([2]; 7-day CellTiter-Glo) [µM] |
| --- | --- | --- | --- | --- | --- | --- | --- | --- |
| COc1cnc(Cl)cc1-c1cc(C)ncc1C(=O)Nc1nc2c(s1)CN(C(=O)c1cnc(C(F)F)nc1)C2 | 1 to 15 | 0.001 to 0.1 |  |  |  | ≥ 10 |  |  |
| COc1cnc(Cl)cc1-c1cc(C)ncc1C(=O)Nc1nc2c(s1)CN(C(=O)[C@H]1C[C@H](C(F)(F)F)C1)C2 [Example 164, 4-(5-Cyano-2-methoxyphenyl)-6-methyl-N-(5-(pyridin-3-ylsulfonyl)-5,6-dibydro-4H-pyrrolo[3,4-d]thiazol-2-yl)nicotinamide] |  |  | 1 to 15 | 0.1 to 0.25 |  |  | ≥ 10 |  |
| COc1cnc(Cl)cc1-c1cc(C)ncc1C(=O)Nc1nc2c(s1)CN(C(=O)c1c(C)nn(C)c1C(F)F)C2 [Example 6, 2′-chloro-N-(5-(5-(difluoromethyl)-1,3-dimethyl-1H-pyrazole-4-carbonyl)-5,6-dihydro-4H-pyrrolo[3,4-d]thiazol-2-yl)-5′-methoxy-6-methyl-[4,4′-bipyridine]-3-carboxamide] |  |  | 1 to 15 | 0.001 to 0.1 |  |  | ≥ 10 |  |
| COc1cnc(Cl)cc1-c1cc(C)ncc1C(=O)Nc1nc2c(s1)CN(C(=O)c1cnn(C)c1C(F)(F)F)C2 [Example 84, 2′-chloro-5′-methoxy-6-methyl-N-(5-(1-methyl-5-(trifluoromethyl)-1H-pyrazole-4-carbonyl)-5,6-dihydro-4H-pyrrolo[3,4-d]thiazol-2-yl)-[4,4′-bipyridine]-3-carboxamide] |  |  | 1 to 15 | 0.001 to 0.1 |  |  | ≥ 10 |  |
| 4-(5-Cyano-2-methoxyphenyl)-N-(5-(4-(difluoromethyl)-2-methoxybenzoyl)-5,6-dihydro-4H-pyrrolo[3,4-d]thiazol-2-yl)-6-methylnicotinamide [Example 481] | 1 to 15 |  |  |  | 0.001 to 0.1 |  |  | ≥ 10 |
| COc1cnc(Cl)cc1-c1cc(C)ncc1C(=O)Nc1nc2c(s1)CN(C(=O)c1ccc(Cl)cn1)C2 [Example 11, 2′-chloro-N-(5-(5-chloropicolinoyl)-5,6-dihydro-4H-pyrrolo[3,4-d]thiazol-2-yl)-5′-methoxy-6-methyl-[4,4′-bipyridine]-3-carboxamide] |  |  | 1 to 15 | 0.001 to 0.1 |  |  | 2 to 5 |  |
| COc1cc(Cl)cc(C(=O)N2Cc3nc(NC(=O)c4cnc(C)cc4-c4cc(Cl)ncc4OC)sc3C2)n1 | 1 to 15 | 0.001 to 0.1 |  |  |  | ≥ 10 |  |  |
| COc1ccc(C#N)cc1-c1cc(C)ncc1C(=O)Nc1nc2c(s1)CN(C(=O)c1ncccc1C)C2 |  |  | 1 to 15 | 0.5 to 2 |  |  | ≥ 10 |  |
| COc1ccc(C#N)cc1-c1cc(C)ncc1C(=O)Nc1nc2c(s1)CN(C(=O)c1cccc(C(F)F)c1)C2 | 1 to 15 | 0.1 to 0.25 |  |  |  | ≥ 10 |  |  |
| COc1cnccc1C(=O)N1Cc2nc(NC(=O)c3cnc(C)cc3-c3cc(Cl)ncc3OC)sc2C1 [Example 168] |  |  | 1 to 15 | 0.1 to 0.25 |  |  | ≥ 10 |  |
| COc1cnc(Cl)cc1-c1cc(C)ncc1C(=O)Nc1nc2c(s1)CN(C(=O)c1cnccc1Cl)C2 [Example 19, 2′-chloro-N-(5-(4-chloronicotinoyl)-5,6-dihydro-4H-pyrrolo[3,4-d]thiazol-2-yl)-5′-methoxy-6-methyl-[4,4′-bipyridine]-3-carboxamide] |  |  | 1 to 15 | 0.001 to 0.1 |  |  | ≥ 10 |  |
| COc1cnc(Cl)cc1-c1cc(C)ncc1C(=O)Nc1nc2c(s1)CN(C(=O)c1ccn(C)n1)C2 [Example 197] |  |  | 1 to 15 | 0.25 to 0.5 |  |  | ≥ 10 |  |
| COc1cnc(Cl)cc1-c1cc(C)ncc1C(=O)Nc1nc2c(s1)CN(C(=O)c1ccc(C(F)(F)F)nn1)C2 [Example 14, 2′-chloro-5′-methoxy-6-methyl-N-(5-(6-(trifluoromethyl)pyridazine-3-carbonyl)-5,6-dihydro-4H-pyrrolo[3,4-d]thiazol-2-yl)-[4,4′-bipyridine]-3-carboxamide] |  |  | 1 to 15 | 0.001 to 0.1 |  |  | ≥ 10 |  |

Continued, in another order:

| IC50 ([1]; POLθ ATPase, ADP-Glo) [nM] | IC50 [3, 4] [µM] | IC50 [1] [nM] | IC50 [3, 5] [µM] | IC50 ([3]; 7-day CellTiter-Glo) [µM] | Compound | IC50 [2, 4] [µM] | IC50 [2, 5] [µM] | IC50 ([2]; 7-day CellTiter-Glo) [µM] |
| --- | --- | --- | --- | --- | --- | --- | --- | --- |
| 1 to 15 | 0.001 to 0.1 |  |  |  | COc1cnc(Cl)cc1-c1cc(C)ncc1C(=O)Nc1nc2c(s1)C(C)N(C(=O)c1ccc(C(F)(F)F)nc1OC)C2 (single isomer, unassigned) [Example 1046, (R or S)-2′-chloro-5′-methoxy-N-(5-(2-methoxy-6-(trifluoromethyl)nicotinoyl)-6-methyl-5,6-dihydro-4H-pyrrolo[3,4-d]thiazol-2-yl)-6-methyl-[4,4′-bipyridine]-3-carboxamide] | ≥ 10 |  |  |
| 1 to 15 | 0.001 to 0.1 |  |  |  | CCn1ncc(Cl)c1C(=O)N1Cc2nc(NC(=O)c3cnc(C)cc3-c3cc(Cl)ncc3OC)sc2C1 [Example 393, 2′-chloro-N-(5-(4-chloro-1-ethyl-1H-pyrazole-5-carbonyl)-5,6-dihydro-4H-pyrrolo[3,4-d]thiazol-2-yl)-5′-methoxy-6-methyl-[4,4′-bipyridine]-3-carboxamide] | ≥ 10 |  |  |
|  |  | 1 to 15 | 0.001 to 0.1 |  | COc1cnc(Cl)cc1-c1cc(C)ncc1C(=O)Nc1nc2c(s1)CN(C(=O)c1ccc(OC(F)(F)F)cn1)C2 [Example 394, 2′-chloro-5′-methoxy-6-methyl-N-(5-(5-(trifluoromethoxy)picolinoyl)-5,6-dihydro-4H-pyrrolo[3,4-d]thiazol-2-yl)-[4,4′-bipyridine]-3-carboxamide] |  | ≥ 10 |  |
| 1 to 15 | 0.001 to 0.1 |  |  |  | COc1ccc(C#N)cc1-c1cc(C)ncc1C(=O)Nc1nc2c(s1)CN(C(=O)c1cccc(C(F)F)c1Cl)C2 [Example 487] | ≥ 10 |  |  |
|  |  | 15 to 50 | ≥ 2 |  | COc1ccc(C#N)cc1-c1cc(C)ncc1C(=O)Nc1nc2c(s1)CN(S(=O)(=O)c1ccccn1)C2 [Example 308] |  | ≥ 10 |  |
| 1 to 15 | 0.001 to 0.1 |  |  |  | COc1cnc(Cl)cc1-c1cc(C)ncc1C(=O)Nc1nc2c(s1)CN(C(=O)c1cc(C(F)F)ccc1F)C2 [Example 398, 2′-chloro-N-(5-(5-(difluoromethyl)-2-fluorobenzoyl)-5,6-dihydro-4H-pyrrolo[3,4-d]thiazol-2-yl)-5′-methoxy-6-methyl-[4,4′-bipyridine]-3-carboxamide] | ≥ 10 |  |  |
